Results reported in patent US20120138290A1, “METHODS TO STIMULATE BIOGENIC METHANE PRODUCTION FROM HYDROCARBON-BEARING FORMATIONS” (SYNTHETIC GENOMICS, INC., priority 2010, published 2012).
“And” between values parts separate entries of the source, which are not always exact repeats. Identical values can stand only once. Like-named read-outs stand apart in the source and are kept apart here.

Experiments:
[1] = system: formate-utilizing, methane-producing species in the enrichment culture; test: Stimulation of methane production by vanadium in cultures utilizing formate; format: cell-based; conditions: for Methane (% in head space volume of 21 ml): DM media with 50 mM formate, 48 hours at 50° C., replicate cultures
Description: The anaerobic reactor system described above in Example 1 contains formate-utilizing, methane-producing species in the enrichment culture. Methanogens in the culture were previously identified by 16sRNA sequencing.
A 10% vol./vol. inoculum was taken from the anaerobic reactor system described above in Example 1, and the effect of vanadium on methane production by methanogens utilizing formate as a carbon and energy source was determined.
Cultures, established with DM media (prepared as described above) containing 50 mM formate as the sole carbon and energy source, were sub-cultured with the same media (in the absence of vanadium) or media supplemented with either 5 or 10 μM VCl3. Methane production was measured after 48 hours of growth at 50° C.

[2] = system: functional microbial subcommunity (inoculum 2L-245 from upflow reactor); test: Stimulation of methane production: batch cultures with additive/stimulant, with or without coal, headspace methane by gas chromatography; format: cell-based
Description: The availability of an inoculum of a functional microbial subcommunity capable of producing methane from coal in vitro prompted laboratory experiments where various stimulants were tested for their effect on methane production. […] The experiments were conducted at three different levels of additives (0.5×, 1× and 2×): additives (stimulants) were added in the following three concentrations. […] DMY media: DM media composition in milli-Q water is made as described above with the addition of 0.5 g/L yeast extract. DMSC media: DM media in milli-Q water is made as described above with the addition of 100 g/L sterile, anaerobic, sub-bituminous coal from the San Juan Basin. DMSCY media: DM media in milli-Q water is made as described above with the addition of 100 g/L sterile, anaerobic, sub-bituminous coal from the San Juan Basin and 0.5 g/L yeast extract. The coal used in these experiments originated from the San Juan Basin (BHP Billiton, Tex.). […] Each stimulant was tested in the presence or absence of coal. The experiments were conducted at three different concentrations of additives (0.5× (low), 1× (medium), and 2× (high)) as described above. Each sample type was conducted in 4 replicates. […] Control sample types were media alone, media plus coal, media plus yeast extract and media plus coal and yeast extract. At each time point, headspace measurements were taken using gas chromatography (microGC […], Agilent Technologies, Inc.). […] Each experiment was performed in quadruplicate. Methane at time 0 was assumed to be 0%.

[3] = DMSCY (coal), 5 μM VCl3, week 1
[4] = DMSCY (coal), 5 μM VCl3, week 3
[5] = DMSCY (coal), 5 μM VCl3, week 5
[6] = DMSCY (coal), 10 μM VCl3, week 1
[7] = DMSCY (coal), 10 μM VCl3, week 3
[8] = DMSCY (coal), 10 μM VCl3, week 5
[9] = DMY (no coal), 5 μM VCl3, week 1
[10] = DMY (no coal), 5 μM VCl3, week 3
[11] = DMY (no coal), 5 μM VCl3, week 5
[12] = DMY (no coal), 10 μM VCl3, week 1
[13] = DMY (no coal), 10 μM VCl3, week 3
[14] = DMY (no coal), 10 μM VCl3, week 5
[15] = DMSCY (coal), 125 μM Na2SO3, week 1
[16] = DMSCY (coal), 125 μM Na2SO3, week 3
[17] = DMSCY (coal), 125 μM Na2SO3, week 5
[18] = DMSCY (coal), 250 μM Na2SO3, week 1
[19] = DMSCY (coal), 250 μM Na2SO3, week 3
[20] = DMSCY (coal), 250 μM Na2SO3, week 5
[21] = DMSCY (coal), 500 μM Na2SO3, week 1
[22] = DMSCY (coal), 500 μM Na2SO3, week 3
[23] = DMSCY (coal), 500 μM Na2SO3, week 5
[24] = DMY (no coal), 125 μM Na2SO3, week 1
[25] = DMY (no coal), 125 μM Na2SO3, week 3
[26] = DMY (no coal), 125 μM Na2SO3, week 5
[27] = DMY (no coal), 250 μM Na2SO3, week 1
[28] = DMY (no coal), 250 μM Na2SO3, week 3
[29] = DMY (no coal), 250 μM Na2SO3, week 5
[30] = DMY (no coal), 500 μM Na2SO3, week 1
[31] = DMY (no coal), 500 μM Na2SO3, week 3
[32] = DMY (no coal), 500 μM Na2SO3, week 5
[33] = DMSCY (coal), 5.0 μM Na2MoO4, week 1
[34] = DMSCY (coal), 5.0 μM Na2MoO4, week 3
[35] = DMSCY (coal), 5.0 μM Na2MoO4, week 5
[36] = DMSCY (coal), 10 μM Na2MoO4, week 1
[37] = DMSCY (coal), 10 μM Na2MoO4, week 3
[38] = DMSCY (coal), 10 μM Na2MoO4, week 5
[39] = DMY (no coal), 5.0 μM Na2MoO4, week 1
[40] = DMY (no coal), 5.0 μM Na2MoO4, week 3
[41] = DMY (no coal), 5.0 μM Na2MoO4, week 5
[42] = DMY (no coal), 10 μM Na2MoO4, week 1
[43] = DMY (no coal), 10 μM Na2MoO4, week 3
[44] = DMY (no coal), 10 μM Na2MoO4, week 5

`[Cl-].[Cl-].[Cl-].[V+3]` [VCl3, vanadium (III) chloride] was tested, and the “Methane (% in head space volume of 21 ml)” value ([1]; 5 μM VCl3 final) was 2.0% and 1.2%, the “Methane (% in head space volume of 21 ml)” value ([1]; 10 μM VCl3 final) was 1.9% and 1.4% and the “methane formation relative to cultures without VCl3 (average)” value ([1]; VCl3-supplemented cultures (5 or 10 μM), 50 mM formate, 48 hours) was “approximately 2 fold”. For the same compound, the “methane production (Average)” value [2, 3] was 0.27, the “methane production (RepA-Rep D)” value [2, 3] was 0.30 and 0.26 and 0.25 and the “methane production (Average)” value [2, 4] was 1.50. For the same compound, the “methane production (RepA-Rep D)” value [2, 4] was 1.51 and 1.40 and 1.21 and 1.88, the “methane production (Average)” value [2, 5] was 2.44 and the “methane production (RepA-Rep D)” value [2, 5] was 2.41 and 2.28 and 1.95 and 3.13. The “methane production (Average)” value [2, 6] was 0.25, the “methane production (RepA-Rep D)” value [2, 6] was 0.29 and 0.25 and 0.24 and the “methane production (Average)” value [2, 7] was 1.06. For the same compound, the “methane production (RepA-Rep D)” value [2, 7] was 1.15 and 1.04 and 1.01, the “methane production (Average)” value [2, 8] was 1.36 and the “methane production (RepA-Rep D)” value [2, 8] was 1.49 and 1.31 and 1.30 and 1.33. The “methane production (Average)” value [2, 9] was 0.20, the “methane production (RepA-Rep D)” value [2, 9] was 0.21 and 0.20 and the “methane production (Average)” value [2, 10] was 0.71. The “methane production (RepA-Rep D)” value [2, 10] was 0.78 and 0.69 and 0.67 and 0.80, the “methane production (Average)” value [2, 11] was 0.70 and the “methane production (RepA-Rep D)” value [2, 11] was 0.75 and 0.70 and 0.68 and 0.67. For the same compound, the “methane production (Average)” value [2, 12] was 0.22, the “methane production (RepA-Rep D)” value [2, 12] was 0.21 and 0.251 and 0.19 and 0.22 and the “methane production (Average)” value [2, 13] was 0.77. The “methane production (RepA-Rep D)” value [2, 13] was 0.85 and 0.7495 and 0.70 and 0.78, the “methane production (Average)” value [2, 14] was 0.76 and the “methane production (RepA-Rep D)” value [2, 14] was 0.76 and 0.82 and 0.70 and 0.77. For the same compound, the “effect on the production of methane” value ([2]; intermediate concentration of the stimulant (FIGS. 1A, 1B, 2A)) was “statistically significant positive effect” and the “dependence of methane production on coal” value ([2]; with or without coal) was “only observed in the presence of coal”.

`O=S([O-])[O-].[Na+].[Na+]` [Na2SO3, sodium sulfite] was tested, and the “methane production (Average)” value [2, 15] was 0.27, the “methane production (RepA-Rep D)” value [2, 15] was 0.26 and 0.24 and 0.25 and 0.32 and the “methane production (Average)” value [2, 16] was 1.02. For the same compound, the “methane production (RepA-Rep D)” value [2, 16] was 1.04 and 0.97 and 0.99 and 1.06, the “methane production (Average)” value [2, 17] was 1.25 and the “methane production (RepA-Rep D)” value [2, 17] was 1.21 and 1.22 and 1.25 and 1.31. The “methane production (Average)” value [2, 18] was 20, the “methane production (RepA-Rep D)” value [2, 18] was 0.23 and 0.18 and 0.19 and 0.20 and the “methane production (Average)” value [2, 19] was 1.07. For the same compound, the “methane production (RepA-Rep D)” value [2, 19] was 1.04 and 1.02 and 1.06 and 1.18, the “methane production (Average)” value [2, 20] was 1.42 and the “methane production (RepA-Rep D)” value [2, 20] was 1.26 and 1.24 and 1.45 and 1.74. For the same compound, the “methane production (Average)” value [2, 21] was 0.14, the “methane production (RepA-Rep D)” value [2, 21] was 0.14 and 0.13 and 0.15 and the “methane production (Average)” value [2, 22] was 1.04. For the same compound, the “methane production (RepA-Rep D)” value [2, 22] was 1.01 and 0.98 and 1.07 and 1.04, the “methane production (Average)” value [2, 23] was 1.35 and the “methane production (RepA-Rep D)” value [2, 23] was 1.34 and 1.26 and 1.37 and 1.41. The “methane production (Average)” value [2, 24] was 0.21, the “methane production (RepA-Rep D)” value [2, 24] was 0.20 and 0.21 and 0.22 and the “methane production (Average)” value [2, 25] was 0.71. The “methane production (RepA-Rep D)” value [2, 25] was 0.71 and 0.68 and 0.69 and 0.75, the “methane production (Average)” value [2, 26] was 0.68 and the “methane production (RepA-Rep D)” value [2, 26] was 0.66 and 0.69 and 0.71. For the same compound, the “methane production (Average)” value [2, 27] was 0.14, the “methane production (RepA-Rep D)” value [2, 27] was 0.14 and 0.15 and 0.13 and the “methane production (Average)” value [2, 28] was 0.67. For the same compound, the “methane production (RepA-Rep D)” value [2, 28] was 0.67 and 0.63 and 0.65 and 0.72, the “methane production (Average)” value [2, 29] was 0.62 and the “methane production (RepA-Rep D)” value [2, 29] was 0.62 and 0.59 and 0.65. For the same compound, the “methane production (Average)” value [2, 30] was 0.09, the “methane production (RepA-Rep D)” value [2, 30] was 0.09 and 0.08 and 0.10 and the “methane production (Average)” value [2, 31] was 0.68. The “methane production (RepA-Rep D)” value [2, 31] was 0.71 and 0.64 and 0.74, the “methane production (Average)” value [2, 32] was 0.74 and the “methane production (RepA-Rep D)” value [2, 32] was 0.83 and 0.68 and 0.76.

`[Na+].[Na+].[O]=[Mo](=[O])([O-])[O-]` [Na2MoO4, sodium molybdic] was tested, and the “methane production (Average)” value [2, 33] was 0.34, the “methane production (RepA-Rep D)” value [2, 33] was 0.39 and 0.28 and 0.31 and the “methane production (Average)” value [2, 34] was 1.19. The “methane production (RepA-Rep D)” value [2, 34] was 1.13 and 1.09 and 1.14 and 1.40, the “methane production (Average)” value [2, 35] was 1.41 and the “methane production (RepA-Rep D)” value [2, 35] was 1.39 and 1.31 and 1.29 and 1.63. The “methane production (Average)” value [2, 36] was 0.44, the “methane production (RepA-Rep D)” value [2, 36] was 0.43 and 0.47 and 0.44 and the “methane production (Average)” value [2, 37] was 1.10. For the same compound, the “methane production (RepA-Rep D)” value [2, 37] was 1.03 and 1.15 and 1.14 and 1.07, the “methane production (Average)” value [2, 38] was 1.13 and the “methane production (RepA-Rep D)” value [2, 38] was 1.11 and 1.14 and 1.15 and 1.13. For the same compound, the “methane production (Average)” value [2, 39] was 0.29, the “methane production (RepA-Rep D)” value [2, 39] was 0.25 and 0.27 and 0.30 and 0.33 and the “methane production (Average)” value [2, 40] was 0.83. For the same compound, the “methane production (RepA-Rep D)” value [2, 40] was 0.77 and 0.85 and 0.79 and 0.91, the “methane production (Average)” value [2, 41] was 0.79 and the “methane production (RepA-Rep D)” value [2, 41] was 0.76 and 0.78 and 0.74 and 0.87. The “methane production (Average)” value [2, 42] was 0.29, the “methane production (RepA-Rep D)” value [2, 42] was 0.30 and 0.26 and 0.32 and the “methane production (Average)” value [2, 43] was 0.82. For the same compound, the “methane production (RepA-Rep D)” value [2, 43] was 0.85 and 0.71 and 0.81 and 0.90, the “methane production (Average)” value [2, 44] was 0.77 and the “methane production (RepA-Rep D)” value [2, 44] was 0.77 and 0.72 and 0.74 and 0.83. For the same compound, the “correlation of methane production with molybdate added to the cultures” value ([2]; FIG. 3B) was “negative correlation” and the “difference of effects with or without coal” value ([2]; molybdate, P=0.063) was “not statistically significantly different”.

With `O=S([O-])([O-])=S.[Na+].[Na+]` [Na2S2O3, sodium thiosulfate] the “dependence of methane production on coal” value [2] was “only observed in the presence of coal” and the “effect on the production of methane” value [2] was “statistically significant positive effect”.
